The source of these data is patent US7838495B2, “Compositions and methods of use of EPB1, and ErbB3 binding protein” (University of Maryland, Baltimore, priority 2007, dated 2010).

One assay relates to LNCaP cells. Put plainly: Growth response of LNCaP vector controls and EBP1 transfectants to DHT and bicalutamide. It counts as cell-based, human. Further details: Emax: dose or concentration left out as unconfirmed. Here is the method:
Cell Growth Assays: To measure growth in complete media, cells (2×10^4) were seeded in triplicate in individual wells of 12-well tissue culture plates in RPMI-1640 with 10% FBS and cultured for the indicated number of days. Cells were trypsinized, stained with Trypan Blue (0.4%), and counted in a hemacytometer. For soft agar growth assays, increasing concentrations of cells (as indicated) were plated in 35 mm Petri dishes in complete media and 0.3% Difco Bacto Agar over an 0.5% agar layer. Colonies were counted after 10 days of incubation. For studies assessing the effect of dihydrotestosterone (DHT) on cell growth, cells (2×10^4) were plated in 12-well plates in complete media. After a 24-hour attachment period, the medium was replaced with steroid-free medium [phenol red-free RPMI 1640 and 5% charcoal-stripped FBS (Sigma)] for 48 hours. The final concentration of testosterone in the steroid-reduced media was less than 5 pM. After 48 hours of steroid depletion, cells were re-fed with fresh steroid-reduced medium with or without the indicated concentrations of DHT and/or bicalutamide (10 μM), and total cell numbers were assessed 7 days later.

The next assay concerns C81 cells. Put plainly: Response of C81 transfectants to DHT and bicalutamide. The class given is cell-based, human. Conditions: steroid reduced medium. Here is the method:
FIG. 4A-C. […] Equal numbers (5×10^4) of vector or EBP1 stably transfected cells were plated at Day 0 in complete media and viable cell numbers determined at the indicated times. Each point represents mean±S.E. of 3 wells. Representative of 3 experiments (Right panel). Colony growth in soft agar. C81 cells stably transfected with either pcDNA or EBP1 were plated in soft agar at the cell densities indicated and colony numbers assessed at Day 10. Each point represents mean±S.E. of 3 dishes. Data is representative of 3 experiments. B. (Left Panel) Response of EBP1 and vector transfected C81 cells to dihydrotestosterone (DHT). EBP1 and vector control C81 transfected cells and early passage LNCaP cells were plated in complete media at 5×10^3 cells/well in 96 well plates for one day. […] Total cell numbers were determined seven days later by MTT assays. […] Total cell numbers were assessed 7 days later by MTT assay. […] Total cell numbers were determined by MTT assays 5 days later. […]
Western Blot Analysis. […] For soft agar growth assays, increasing concentrations of cells (as indicated) were plated in 35 mm Petri dishes in 0.3% agar in complete media and colonies were counted after 10 days of incubation (21). […] Relative cell growth was determined using a Promega Proliferation Reagent (Promega, Madison Wis.) as per manufacturer's instructions with absorbance being read at […] using a Dynex plate reader. […]

The target in a further assay is AR (Homo sapiens, UniProt P10275, T878A). On the procedure: Luciferase Reporter Assays: Vector control or EBP1-transfected LNCaP (5×10^4) cells were plated in twelve-well plates in complete media. When cells reached 50-60% confluence, they were transfected with 0.5 μg of MMTV-luc using the Fugene-6 reagent (Roche). Cells were also transfected with the RL-TK vector as an internal control. […] Luciferase activity was determined as previously described using a Dual-Luciferase kit (Promega, Madison, Wis.). The activities of renilla luciferase were used to normalize any variations in transfection efficiency. The promoter activities of each plasmid construct were calculated as the firefly-renilla luciferase activity ratios. All transfection experiments were carried out in triplicate wells and repeated three times.

Assay [1] has as its system AR regulated MMTV promoter. Put plainly: MMTV-luciferase reporter response to R1881 in A16 and C13 cells. It counts as cell-based, human. Conditions: EBP1 knock out cells vs A16, R1881 10^-8 M, p<0.05. On the procedure:
FIG. 7A-C. Suppression of EBP1 by shRNA promotes a hormone refractory phenotype A. Western blot analysis of Ebp1. Lysates of LNCaP cells stably transduced with a control lentivirus (A16) or an EBP1 targeted shRNA (13C) were collected and resolved by SDS-PAGE. Western blots were probed for endogenous EBP1 or ACTIN as indicated. B. Inhibition of EBP1 expression abrogates the ability of HRG to arrest growth (Left panel) Control and shRNA EBP1 targeted cells were plated in complete media at […] for one day. The next day, cells were switched to steroid reduced-media and HRG added at the indicated concentrations. Total cell numbers were determined seven days later by MTT assay. Each point represents mean±S.E. of 6 wells. Data is representative of three experiments. (Right Panel) AKT phosphorylation in EBP1 knock out cells Control (A16) or EBP 1 knock out cells (C13) were treated with HRG (20 ng/ml) for 15 mm and cell lysates assessed for the presence of phospho and total AKT as indicated. C. […] Sixteen hours later, luciferase activity was measured. […] Lysates of logarithmically growing A16 and C13 cells were resolved by SDS-PAGE and analyzed by Western blotting using antibodies to AGR2 and ACTIN as indicated. […] The viability of the cells was determined by MTT assays 5 days later. […]

Sequence of AR (P10275 whole entry T878A): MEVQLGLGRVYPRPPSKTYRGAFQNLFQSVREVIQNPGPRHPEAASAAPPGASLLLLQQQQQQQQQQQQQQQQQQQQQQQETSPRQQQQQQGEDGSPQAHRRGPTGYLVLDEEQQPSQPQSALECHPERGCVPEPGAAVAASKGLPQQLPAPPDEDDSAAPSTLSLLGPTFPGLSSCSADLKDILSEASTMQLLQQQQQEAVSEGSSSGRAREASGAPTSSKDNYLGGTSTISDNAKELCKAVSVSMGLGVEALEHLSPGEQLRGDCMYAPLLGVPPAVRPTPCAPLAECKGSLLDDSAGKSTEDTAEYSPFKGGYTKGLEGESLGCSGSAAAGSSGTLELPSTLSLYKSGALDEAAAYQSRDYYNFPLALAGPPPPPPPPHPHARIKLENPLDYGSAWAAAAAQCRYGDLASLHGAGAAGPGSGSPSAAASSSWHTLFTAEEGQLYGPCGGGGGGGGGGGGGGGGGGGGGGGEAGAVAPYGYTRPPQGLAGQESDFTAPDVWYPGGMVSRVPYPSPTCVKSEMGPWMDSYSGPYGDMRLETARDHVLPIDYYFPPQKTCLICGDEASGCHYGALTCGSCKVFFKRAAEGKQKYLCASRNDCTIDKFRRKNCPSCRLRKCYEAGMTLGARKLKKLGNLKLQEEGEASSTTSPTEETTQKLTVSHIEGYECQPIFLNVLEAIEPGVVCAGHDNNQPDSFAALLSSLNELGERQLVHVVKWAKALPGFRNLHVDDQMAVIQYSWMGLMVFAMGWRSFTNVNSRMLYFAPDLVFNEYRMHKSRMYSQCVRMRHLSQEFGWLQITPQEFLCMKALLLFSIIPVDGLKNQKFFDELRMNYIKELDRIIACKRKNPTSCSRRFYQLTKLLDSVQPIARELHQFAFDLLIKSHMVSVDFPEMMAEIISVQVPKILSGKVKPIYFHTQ

For the compound `C[C@]12CCC(=O)C[C@@H]1CC[C@@H]1[C@@H]2CC[C@]2(C)[C@@H](O)CC[C@@H]12` [DHT, dihydrotestosterone], in the assay with LNCaP cells (Homo sapiens, LNCaP, read-out: maximal stimulation of growth by DHT), the Emax worked out at 250%. In addition, in the assay on LNCaP cells (LNCaP EBP1 transfectants, 10^-9 M DHT), the “stimulation of growth by DHT” value is given as 35%. Besides, the figures for the “growth response to androgen (DHT)” value in the assay with C81 cells (EBP1 transfected C81 cells) and in the assay with C81 cells (vector control C81 cells) were “responded to androgen in a similar manner as the original low passage LNCaP androgen sensitive cells” and “unresponsive”, respectively.
Turning to `C[C@]1(O)CC[C@H]2[C@@H]3CCC4=CC(=O)CCC4=C3C=C[C@@]21C` [R1881], the “AR activation (MMTV-luc)” value at AR (LNCaP EPB1 transfectants) was “neither R1881 nor cyproterone acetate nor the combination thereof stimulated AR activation”. Moreover, on AR (LNCaP vector controls, 10^-8 M), the “activation of MMTV-luc luciferase activity” value turned out to be 20 fold. For the same compound, the “transcriptional response of AR regulated MMTV promoter to R1881” value in assay [1] is “enhanced”.
